Test results reported in patent US12195482B1 (Arcus Biosciences, Inc., priority 2022, dated 2025).

Tests used:
p-AXL = biological target: T1, p-AXL (Homo sapiens, UniProt P30530); assay: Axl phosphorylation inhibition ELISA in HEK293T cells transfected with NanoLuc-tagged AXL; type: cell-based; conditions: 1 h compound incubation, media (OptiMEM)
T1 construct: expressed in transfected cells; host or cells: HEK293T
T1 sequence (P30530 26-894): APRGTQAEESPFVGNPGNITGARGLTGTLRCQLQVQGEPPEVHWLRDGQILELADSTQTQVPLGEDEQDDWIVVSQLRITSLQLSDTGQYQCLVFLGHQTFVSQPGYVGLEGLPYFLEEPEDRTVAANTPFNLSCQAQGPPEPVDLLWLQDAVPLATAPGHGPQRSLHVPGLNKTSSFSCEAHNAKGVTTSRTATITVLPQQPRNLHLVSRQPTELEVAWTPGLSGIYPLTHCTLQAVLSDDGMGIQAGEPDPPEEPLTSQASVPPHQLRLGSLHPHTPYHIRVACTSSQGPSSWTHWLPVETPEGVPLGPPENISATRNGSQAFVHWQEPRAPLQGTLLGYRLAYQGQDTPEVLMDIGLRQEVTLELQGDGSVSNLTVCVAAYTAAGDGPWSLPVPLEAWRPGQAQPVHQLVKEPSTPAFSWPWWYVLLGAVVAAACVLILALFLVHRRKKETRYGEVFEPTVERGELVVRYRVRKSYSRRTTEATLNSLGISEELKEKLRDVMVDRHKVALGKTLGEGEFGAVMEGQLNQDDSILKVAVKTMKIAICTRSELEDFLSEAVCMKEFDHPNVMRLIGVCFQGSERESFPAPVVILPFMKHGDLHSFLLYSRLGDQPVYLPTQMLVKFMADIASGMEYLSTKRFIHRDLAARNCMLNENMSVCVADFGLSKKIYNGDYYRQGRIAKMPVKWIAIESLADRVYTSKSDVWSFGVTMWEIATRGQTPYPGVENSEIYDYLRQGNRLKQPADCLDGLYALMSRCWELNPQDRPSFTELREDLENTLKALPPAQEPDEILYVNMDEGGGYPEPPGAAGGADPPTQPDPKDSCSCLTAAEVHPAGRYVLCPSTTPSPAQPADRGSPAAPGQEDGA
Outline: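 HEK293T cells transiently transfected one day earlier with NanoLuc-tagged AXL were exposed to 22-point 2-fold compound dilutions for 1 h at 37° C (70,000 cells/well), then lysed. Lysates captured on anti-phospho-tyrosine coated plates for 2 h; bound p-AXL read by NanoLuc luminescence; IC50 from 4-parameter logistic fit.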

recombinant human MER = biological target: T2, recombinant human MER (Homo sapiens, UniProt Q12866); assay: Biochemical potency, HTRF KinEASE-TK kinase assay; conditions: 1 nM MER, 700 μM ATP
T2 construct: purchased Invitrogen
T2 sequence (Q12866 21-999): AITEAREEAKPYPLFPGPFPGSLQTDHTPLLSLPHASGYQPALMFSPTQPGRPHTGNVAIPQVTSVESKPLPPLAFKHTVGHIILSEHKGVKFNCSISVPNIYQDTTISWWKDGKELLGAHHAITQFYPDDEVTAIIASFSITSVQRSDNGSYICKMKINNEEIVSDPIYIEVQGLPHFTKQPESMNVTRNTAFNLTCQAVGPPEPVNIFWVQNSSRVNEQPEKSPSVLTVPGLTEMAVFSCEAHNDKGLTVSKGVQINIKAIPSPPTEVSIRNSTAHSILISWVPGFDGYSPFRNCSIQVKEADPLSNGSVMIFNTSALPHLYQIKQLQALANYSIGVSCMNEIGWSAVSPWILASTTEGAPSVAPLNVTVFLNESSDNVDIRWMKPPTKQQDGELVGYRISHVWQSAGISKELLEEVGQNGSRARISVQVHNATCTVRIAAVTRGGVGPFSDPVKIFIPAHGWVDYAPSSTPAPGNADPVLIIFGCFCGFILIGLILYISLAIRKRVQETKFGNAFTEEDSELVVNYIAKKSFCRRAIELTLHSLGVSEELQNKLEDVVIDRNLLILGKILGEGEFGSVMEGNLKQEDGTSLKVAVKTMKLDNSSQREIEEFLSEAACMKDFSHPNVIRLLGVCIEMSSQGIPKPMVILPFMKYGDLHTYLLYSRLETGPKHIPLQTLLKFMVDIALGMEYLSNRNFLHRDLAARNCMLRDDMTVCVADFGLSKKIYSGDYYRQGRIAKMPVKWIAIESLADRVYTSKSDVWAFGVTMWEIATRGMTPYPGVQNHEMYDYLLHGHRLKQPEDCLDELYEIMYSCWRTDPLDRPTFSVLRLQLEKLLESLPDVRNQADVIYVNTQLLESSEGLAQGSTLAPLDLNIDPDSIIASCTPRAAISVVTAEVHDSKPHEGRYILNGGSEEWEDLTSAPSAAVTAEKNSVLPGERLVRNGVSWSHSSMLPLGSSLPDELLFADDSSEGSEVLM
Protocol: Measurement of Biochemical Compound Potency of Axl Inhibitors
Purified recombinant human AXL, TYRO3 and MER proteins were purchased from Invitrogen™. 10 nM AXL, 2 nM TYRO3 or MER were incubated with varying concentrations of compounds in 50 mM HEPES, pH 7.4, 10 mM MgCl2, 0.01% BSA, 1 mM DTT and 2% DMSO in a total volume of 20 μl in a 384-well microplate (Corning™ #3640) at RT for 1 h. The AXL, TYRO3 and MER enzymatic reaction was initiated by transferring 10 μl of enzyme and compound mixture into 10 μl of 1.6 μM TK Substrate-biotin (HTRF® KinEASE-TK kit, Cisbio) and 1400 μM ATP pre-incubated in 50 mM HEPES, pH 7.4, 10 mM MgCl2, 0.01% BSA, 1 mM DTT in a 384-well microplate (Corning™ #3640) at RT, giving the final reaction conditions: 5 nM AXL, 1 nM TYRO3 or MER, 800 nM TK Substrate-biotin and 700 μM ATP in 50 mM HEPES, pH 7.4, 10 mM MgCl2, 0.01% BSA, 1 mM DTT and 1% DMSO with varying concentrations of compounds. Following 2 h incubation at RT, the AXL, TYRO3 and MER enzymatic reaction was stopped by transfer of 10 μl of reaction into 10 μl of detection mix (400 nM Streptavidin-XL665, 200-fold dilution TK Antibody-Cryptate and detection buffer, HTRF® KinEASE-TK kit, Cisbio) in a white 384-well microplate (Perkin Elmer, OptiPlate 384). After 1 h incubation at RT, the plate was put into a plate reader (Evision) to read at 665/620 nm (acceptor/donor) for HTRF. The value of the DMSO blank (MIN inhibition=100% activity) was used as a negative control. The positive control was established by adding 5 μl of enzyme and DMSO mixture into 10 μl of detection mix followed by addition of 5 μl of TK Substrate-biotin and ATP mixture (MAX inhibition=0% activity). To calculate the percent activity, Equation 1 was used. Ratio665/620 is the value at a given compound concentration: […]

Axl = biological target: T3, Axl (Homo sapiens, UniProt P30530); assay: Biochemical potency, HTRF KinEASE-TK kinase assay; parameters: purchased Invitrogen; conditions: 5 nM AXL, 700 μM ATP
T3 sequence (P30530 26-894): T1 sequence (P30530 26-894)
Outline: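 Phosphorylation of a biotinylated tyrosine-kinase peptide (800 nM) by AXL (5 nM) or TYRO3/MER (1 nM) is measured at 700 µM ATP after 2 h at room temperature, following 1 h enzyme–compound preincubation. Signal is the time-resolved FRET ratio, converted to percent activity.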

Structure (SMILES) | IC50 (p-AXL) [µM] | IC50 (recombinant human MER) [µM] | IC50 (Axl) [µM]
Cc1ccc(C)c(-c2ccc(-c3n[nH]c4ncc(-c5ccc6c(c5)CC[C@@H](N5C7COC[C@H]5C7)CC6)cc34)nc2)n1 [Example 9, 3,6-Dimethyl-6′-{5-[(7S)-7-[(1R)-3-oxa-6-azabicyclo[3.1.1]heptan-6-yl]-6,7,8,9-tetrahydro-5H-benzo[7]annulen-2-yl]-1H-pyrazolo[3,4-b]pyridin-3-yl}-2,3′-bipyridine] | < 0.1 | 0.1 to 1 | < 0.1
Cc1cccnc1-c1ccc(-c2n[nH]c3ncc(-c4ccc5c(c4)CC[C@@H](N4C6COCC4C6)CC5)cc23)nn1 [Example 17, 6-[(7S)-3-[3-[6-(3-Methylpyridin-2-yl)pyridazin-3-yl]-1H-pyrazolo[3,4-b]pyridin-5-yl]-6,7,8,9-tetrahydro-5H-benzo[7]annulen-7-yl]-3-oxa-6-azabicyclo[3.1.1]heptane] | < 0.1 | 0.1 to 1 | < 0.1
Cc1nccnc1-c1ccc(-c2n[nH]c3ncc(-c4ccc5c(c4)CC[C@@H](N4C6COCC4C6)CC5)cc23)nc1 [Example 55, 6-[(7S)-2-{3-[5-(3-Methylpyrazin-2-yl)pyridin-2-yl]-1H-pyrazolo[3,4-b]pyridin-5-yl}-6,7,8,9-tetrahydro-5H-benzo[7]annulen-7-yl]-3-oxa-6-azabicyclo[3.1.1]heptane] | < 0.1 | > 1 | < 0.1

Continued, values first:

IC50 (p-AXL) [µM] | IC50 (recombinant human MER) [µM] | IC50 (Axl) [µM] | Structure (SMILES)
< 0.1 | 0.1 to 1 | < 0.1 | Cc1cccnc1-n1cc(-c2n[nH]c3ncc(-c4ccc5c(c4)CC[C@@H](N4C6COCC4C6)CC5)cc23)cn1 [Example 79, 6-[(7S)-2-{3-[1-(3-Methylpyridin-2-yl)-1H-pyrazol-4-yl]-1H-pyrazolo[3,4-b]pyridin-5-yl}-6,7,8,9-tetrahydro-5H-benzo[7]annulen-7-yl]-3-oxa-6-azabicyclo[3.1.1]heptane]
0.1 to 1 | 0.1 to 1 | < 0.1 | O=C1OCCN1c1nccnc1-c1ccc(-c2n[nH]c3ncc(-c4ccc5c(c4)CC[C@@H](N4C6COCC4C6)CC5)cc23)cc1 [Example 126, 3-[3-(4-{5-[(7S)-7-{3-Oxa-6-azabicyclo[3.1.1]heptan-6-yl}-6,7,8,9-tetrahydro-5H-benzo[7]annulen-2-yl]-1H-pyrazolo[3,4-b]pyridin-3-yl}phenyl)pyrazin-2-yl]-1,3-oxazolidin-2-one]
0.1 to 1 |  | < 0.1 | Cc1ccc(N2CCCC2=O)c(-c2ccc(-c3n[nH]c4ncc(-c5ccc6c(c5)CC[C@@H](N5C7COCC5C7)CC6)cc34)cc2)n1 [Example 198, 1-[6-Methyl-2-(4-{5-[(7S)-7-{3-oxa-6-azabicyclo[3.1.1]heptan-6-yl}-6,7,8,9-tetrahydro-5H-benzo[7]annulen-2-yl]-1H-pyrazolo[3,4-b]pyridin-3-yl}phenyl)pyridin-3-yl]pyrrolidin-2-one]
